By solubility is commonly meant the concentration that dissolves in the medium under given conditions.

Values after ≈ are worked out from the molar mass of the structure shown. “Also recorded” adds a separate entry of the source. Like-named read-outs stand apart in the source and are kept apart here.

The nature of data set [1]: solubility of P18 in water and in Soluplus®/Labrasol® micelle formulation. In kind it is physicochemical. From the text: In contrast, the solubility of the prodrugs, e.g., P18 in the micelle formulation were improved as presented below.
In another data set the target is T1, nSMase2 (Mus musculus, UniProt Q9JJY3).
T1 construct: the striata dissected and analyzed for nSMase2 activity using a modification of previously published protocols; from tissue; host or cells: striata of GFAP-EGFP transgenic mice, homogenised and sonicated lysate
T1 sequence (Q9JJY3 1-655): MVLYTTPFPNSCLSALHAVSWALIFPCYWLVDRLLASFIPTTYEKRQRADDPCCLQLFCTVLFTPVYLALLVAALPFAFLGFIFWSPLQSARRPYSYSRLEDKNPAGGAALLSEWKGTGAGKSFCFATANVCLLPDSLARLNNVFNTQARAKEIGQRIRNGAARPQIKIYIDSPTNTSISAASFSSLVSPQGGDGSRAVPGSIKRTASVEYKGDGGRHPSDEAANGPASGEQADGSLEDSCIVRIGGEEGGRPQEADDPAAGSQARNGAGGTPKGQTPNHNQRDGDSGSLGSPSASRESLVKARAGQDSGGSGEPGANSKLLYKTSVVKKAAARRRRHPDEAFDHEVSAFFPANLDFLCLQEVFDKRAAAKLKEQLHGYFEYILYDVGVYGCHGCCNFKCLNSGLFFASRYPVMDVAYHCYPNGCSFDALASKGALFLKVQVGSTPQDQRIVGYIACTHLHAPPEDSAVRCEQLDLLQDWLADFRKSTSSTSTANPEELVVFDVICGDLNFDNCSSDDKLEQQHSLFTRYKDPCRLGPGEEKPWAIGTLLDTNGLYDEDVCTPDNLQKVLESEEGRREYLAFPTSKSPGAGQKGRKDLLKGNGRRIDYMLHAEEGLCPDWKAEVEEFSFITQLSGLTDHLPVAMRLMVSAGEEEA
Briefly: nSMase2 activity in striata of IL-1β-injected mice. In kind it is in vivo. The following applies: P18 3 and 10 mg/kg DPTIP equivalent PO 30 min before intrastriatal IL-1β; 4 h. From the text:
We have previously reported that nSMase2 regulates the secretion of extracellular vesicles from astrocytes in response to a focal inflammatory brain lesion. Rojas et al., 2018. Striatal injection of IL-1β in mice expressing GFAP-EGFP in astroglia evokes the release of GFP-labelled EVs that rapidly enter into plasma and target multiple organ systems. Dickens et al., 2017. We used this mouse model to evaluate the ability of P18 to inhibit EV release by the inhibition of nSMase2 activity in vivo. […] Interleukin-1β-injected mice, orally pre-dosed with P18 (30 min prior) were euthanized 4-hours post-IL-1β injection. GFP labeled (GFP+) EVs were quantified in plasma and nSMase2 activity was measured in the brain striata.
Rojas et al., 2018; Figuera-Losada et al., 2015. Briefly, mice striata were homogenized in ice-cold Tris-HCl buffer (0.1 M, pH 7.5) containing 250 mM sucrose, 10 mM EGTA (Research Products International, Prospect, IL), 100 μM sodium molybdate and protease inhibitors (Cell Signaling, Danvers, MA) using Biomasher II and then sonicated using Kontes' Micro Ultrasonic Cell Disrupter (three pulses of 15 s duration on ice with 30 s between pulses). […] At the end of the reaction period, the relative fluorescence units were measured at Ex 530 nm, Em 590 nm. […]

A short description of data set [2]: in vitro stability in CES1−/− mouse brain homogenates. In kind it is in vitro ADME. The following applies: CES1−/− mouse brain homogenate, 10 μM, 37° C. The method, then:
(§1) All synthesized prodrugs were next screened for in vitro stability in carboxylesterase 1 knockout (CES1^−/−) mouse plasma, as well as CES1^−/− mouse brain and liver homogenates (Table 2-1). We have previously reported that CES1^−/− mouse model recapitulates human prodrug metabolism.
(§2) For the tissue homogenates, washed tissues were diluted 10-fold in 0.1 M potassium phosphate buffer and homogenized using a probe sonicator. To evaluate the stability of the intact prodrug over time, each of the crude homogenates and plasma were aliquoted to 1 mL and then spiked with a final assay concentration of 10 μM of each prodrug followed by incubation in an orbital shaker at 37° C. for 1 h (in triplicate). Sample from each incubation at predetermined time points (0 min, and 1 h) was quenched with three volumes of acetonitrile containing the internal standard (IS; losartan: 0.5 μm). Samples were vortex-mixed for 30 secs and centrifuged at 10,000×g for 10 min at 4° C. Disappearance of intact prodrugs from these samples were performed on a Dionex ultra-high-performance LC system coupled with Q Exactive Focus orbitrap mass spectrometer (Thermo Fisher Scientific Inc., Waltham MA). […] The mobile phase consisted of 0.1% formic acid in water and 0.1% formic acid in acetonitrile. Pumps were operated at a flow rate of 0.4 mL/min for 9 min using gradient elution. The mass spectrometer controlled by Xcalibur software 4.0.27.13 (Thermo Scientific) was operated with a heated electrospray ionization (HESI) ion source in positive ionization mode. Quantification of the prodrugs were performed in the full-scan mode (from m/z 50 to 1600) by comparing t=0 samples with t=60 min samples.

Data set [3] can be described thus: in vitro stability in CES1−/− mouse liver homogenates. In kind it is in vitro ADME. The following applies: CES1−/− mouse liver homogenate, 10 μM, 37° C. The method, then:
as §1, §2

For `CCC1CC(N2CCCCC2)CC(CC)N1C(=O)Oc1c(OC)cc(-c2nc(-c3ccccc3)c(-c3cccs3)[nH]2)cc1OC` (stereo not drawn) [Compound P18, 2,6-Dimethoxy-4-(5-phenyl-4-(thiophen-2-yl)-1H-imidazol-2-yl)phenyl 2′,6′-diethyl-[1,4′-bipiperidine]-1′-carboxylate], the solubility in data set [1] (Labrasol micelles in water, aqueous with cosolvent or surfactant or cyclodextrin, solid dispersion in Labrasol®, hydrated with water, read-out: solubility in micelle formulation) was 1700 µg/mL (≈ 2700 µM); in data set [1] (Soluplus micelles in water, aqueous with cosolvent or surfactant or cyclodextrin, solid dispersion in Soluplus®, hydrated with water, read-out: solubility in micelle formulation), 1700 µg/mL (≈ 2700 µM); in data set [1] (water, read-out: solubility in water), less than 500 µg/mL. Also, on nSMase2, the “nSMase2 activity in brain striata” value was “attenuated nSMase2 activity; also recorded: inhibition of brain nSMase2 activity; also recorded: reduced nSMase2 activity increased in response to IL-1β in a dose dependent manner; also recorded: significant inhibition of nSMase2 activity”. In data set [2], the “Stability in mouse (% remaining at 1h) Mean + Std Error, Brain” value is listed as 100 ± 1%. Moreover, the “Stability in mouse (% remaining at 1h) Mean + Std Error, Liver” value in data set [3] is listed as 100 ± 3%.

The values above are taken from patent publication US20240287108A1, “nSMASE2 INHIBITOR PRODRUGS WITH ENHANCED ORAL AND BRAIN EXPOSURES” (The Johns Hopkins University, priority 2021, published 2024).
